From paper PMC2765170 (PLoS ONE, 2009)

What was measured:
[1] = target: CoaE (M. tuberculosis dephosphocoenzyme A kinase, Rv1631) (Mycobacterium tuberculosis, UniProt P9WPA3); test: biochemical; type: binding; details: read-out: Ka (M^-1*104) (converted)
[2] = system: CC(C)(COP(=O)(O)OP(=O)(O)OC[C@H]1O[C@@H](n2cnc3c(N)ncnc32)[C@H](O)[C@@H]1O)[C@@H](O)C(=O)NCCC(=O)NCCS; test: purified protein; details: co-substrate ATP, MgCl2, 25°C
[3] = system: Nc1ncnc2c1ncn2[C@H]1C[C@H](O)[C@@H](COP(=O)(O)OP(=O)(O)OP(=O)(O)O)O1; test: purified protein; details: alternate phosphate donor, co-substrate DCoA
[4] = system: Nc1ncnc2c1ncn2[C@@H]1O[C@H](COP(=O)(O)OP(=O)(O)OP(=O)(O)O)[C@@H](O)[C@H]1O; test: purified protein; details: co-substrate DCoA, MgCl2, 25°C

Chain of CoaE (M. tuberculosis dephosphocoenzyme A kinase, Rv1631) (P9WPA3 whole entry): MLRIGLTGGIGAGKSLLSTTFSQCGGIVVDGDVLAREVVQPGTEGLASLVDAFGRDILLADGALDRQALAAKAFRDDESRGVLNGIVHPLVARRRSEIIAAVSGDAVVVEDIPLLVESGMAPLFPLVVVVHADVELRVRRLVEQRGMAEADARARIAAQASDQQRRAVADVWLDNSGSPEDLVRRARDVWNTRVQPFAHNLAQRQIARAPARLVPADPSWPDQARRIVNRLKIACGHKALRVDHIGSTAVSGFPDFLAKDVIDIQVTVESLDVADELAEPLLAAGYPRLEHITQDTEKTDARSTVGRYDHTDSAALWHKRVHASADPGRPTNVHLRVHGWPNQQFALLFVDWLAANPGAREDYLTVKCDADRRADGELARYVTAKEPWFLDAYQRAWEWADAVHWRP

| Compound | Kd [1] | Km [2] | Km [3] | Km [4] |
| --- | --- | --- | --- | --- |
| Nc1ncnc2c1ncn2[C@H]1C[C@H](O)[C@@H](COP(=O)(O)OP(=O)(O)OP(=O)(O)O)O1 [dATP] | 57.5 µM |  |  |  |
| Nc1ccn([C@@H]2O[C@H](COP(=O)(O)OP(=O)(O)OP(=O)(O)O)[C@@H](O)[C@H]2O)c(=O)n1 [CTP] | 62.9 µM |  |  |  |
| Nc1ncnc2c1ncn2[C@@H]1O[C@H](COP(=O)(O)OP(=O)(O)O)[C@@H](O)[C@H]1O [ADP] | 49.3 µM |  |  |  |
| CoaE (M. tuberculosis dephosphocoenzyme A kinase, Rv1631) (Mycobacterium tuberculosis H37Rv) |  | 34.9 µM | 320 µM | 56.8 µM |
